Experimental data taken from US20070117808A1, “Substituted Cycloalkylpyrrolones As Allosteric Modulators Of Glucokinase” (priority 2005, published 2007).
Values joined by “and” are separate entries in the source; they are usually repeats but may differ in a detail not shown here. Equal entries are not always repeated.

Legend:
[1] = target: T1, human pancreas Glucokinase (GK) (Homo sapiens, UniProt P35557); test: Glucokinase enzyme assay, pancreas GK; type: biochemical; details: for EC50: concentration that produces 50% activation above the vehicle control; for EC100%: concentration that produces 100% activation above the vehicle control; for activation at 50 µM: percentage increase in GK activity above vehicle control, compound 50 μM, 12 mM glucose
T1 construct: (His)6; made in house; host or cells: Escherichia coli
T1 sequence (P35557 1-465): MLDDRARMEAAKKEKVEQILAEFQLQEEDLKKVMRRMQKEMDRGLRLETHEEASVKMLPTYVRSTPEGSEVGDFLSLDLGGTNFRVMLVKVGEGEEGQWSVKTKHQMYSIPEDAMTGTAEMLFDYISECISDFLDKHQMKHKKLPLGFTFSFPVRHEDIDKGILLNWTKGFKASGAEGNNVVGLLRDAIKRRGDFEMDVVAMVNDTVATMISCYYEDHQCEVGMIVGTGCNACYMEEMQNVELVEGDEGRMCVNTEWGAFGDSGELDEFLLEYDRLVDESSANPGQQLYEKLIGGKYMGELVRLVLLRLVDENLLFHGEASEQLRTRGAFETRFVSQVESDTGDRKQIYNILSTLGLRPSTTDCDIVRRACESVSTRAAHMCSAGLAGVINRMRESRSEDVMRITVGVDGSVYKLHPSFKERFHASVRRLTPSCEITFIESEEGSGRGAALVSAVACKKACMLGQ
Excerpt: (§1) An enzymatic Glucokinase (GK) assay using purified recombinant human liver/pancreas enzyme was used to evaluate the effects of potential small molecule modulators.
(§2) In this assay, GK catalyzes glucose phosphorylation in the presence of ATP. The product of this reaction, glucose-6-phosphate, was then oxidized by an excess of glucose-6-phosphate dehydrogenase to produce gluconate-6-phosphate with concomitant reduction of nicotinamide adenine dinucleotide (NAD). […] Human GK (Liver/Pancreas) was expressed in Escherichia coli as a (His) 6-tagged fusion protein and was purified by metal chelate affinity chromatography. The assay was performed in a final incubation volume of 80 μl in a 96-well clear low UV absorption plates. The incubation mixture consisted of 25 mM HEPES, 2 mM MgSO4, 1 mM dithiothreotol (DTT), 1 mg/mL bovine serum albumin (BSA), 1 mM ATP, 1 mM NAD, and 12 mM glucose, 10 units per mL glucose-6-phosphate dehydrogenase, and +/−300 ng per mL GK. For determination of the affinity (Km) and Vmax, different concentrations of glucose ranging from 0.5 mM to 40 mM were used in the assay; see Grimsby, J., Sarabu, R.; Grippo, J. F.; et. al. Science 2003, 301, 370-373. Production of reduced NAD (Nicotinamide Adenine Dinucleotide) was measured as changes in absorption at 340 nm in 96-well plate reader (Envision model # 2101 Multilabel Plate reader). % Activation @ 50 μM was calculated as the percentage increase in GK activity above the vehicle control with the effective concentration of the compound being 50 μM. EC50% (μM) was calculated as the effective concentration of the compound that produces 50% activation above the vehicle control, and EC100% (μM) was calculated as the effective concentration of the compound that produces 100% activation above the vehicle control.

[2] = target: T2, human liver Glucokinase (GK) (Homo sapiens, UniProt P35557); test: Glucokinase enzyme assay, liver GK; type: biochemical; details: for EC50: concentration that produces 50% activation above the vehicle control; for EC100%: concentration that produces 100% activation above the vehicle control; for activation at 50 µM: percentage increase in GK activity above vehicle control, compound 50 μM, 12 mM glucose
T2 construct: (His)6; made in house; host or cells: Escherichia coli
T2 sequence (P35557 1-466 isoform P35557-2): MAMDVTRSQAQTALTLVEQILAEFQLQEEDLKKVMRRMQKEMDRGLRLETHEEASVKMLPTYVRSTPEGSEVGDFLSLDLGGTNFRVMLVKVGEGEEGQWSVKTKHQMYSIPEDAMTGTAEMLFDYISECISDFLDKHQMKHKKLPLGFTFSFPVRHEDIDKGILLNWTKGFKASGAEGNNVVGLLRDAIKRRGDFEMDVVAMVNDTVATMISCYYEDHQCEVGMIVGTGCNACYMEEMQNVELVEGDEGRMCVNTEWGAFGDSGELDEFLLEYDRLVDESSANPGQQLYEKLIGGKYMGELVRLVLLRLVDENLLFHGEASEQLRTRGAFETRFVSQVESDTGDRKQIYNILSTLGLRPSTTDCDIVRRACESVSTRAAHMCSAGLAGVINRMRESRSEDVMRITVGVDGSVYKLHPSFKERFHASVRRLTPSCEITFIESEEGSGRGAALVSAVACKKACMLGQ
Excerpt: as §1, §2

| Compound | EC50 [1] | EC100% [1] | activation at 50 µM [1] [%] | EC50 [2] | EC100% [2] | activation at 50 µM [2] [%] |
| --- | --- | --- | --- | --- | --- | --- |
| O=C(CSC1C2=C(CCCC2)C(=O)N1Cc1ccc([N+](=O)[O-])cc1)Nc1ccccn1 (stereo not drawn) [Compound 14, 2-[2-(4-Nitro-benzyl)-3-oxo-2,3,4,5,6,7-hexahydro-1H-isoindol-1-ylsulfanyl]-N-pyridin-2-yl-acetamide] | 10900 nM | >50 µM | 79.4 | – | – | – |
| O=C(CSC1C2=C(CCCC2)C(=O)N1Cc1ccncc1)Nc1ccccn1 (stereo not drawn) [Compound 19, 2-(3-Oxo-2-pyridin-4-ylmethyl-2,3,4,5,6,7-hexahydro-1H-isoindol-1-ylsulfanyl)-N-pyridin-2-yl-acetamide] | 1600 nM | 5 µM | 218 | – | – | – |
| COc1ccc(CN2C(=O)C3=C(CCCC3)C2SCC(=O)Nc2ccc(C(N)=O)cn2)cc1OC (stereo not drawn) [Compound 13, 6-{2-[2-(3,4-Dimethoxy-benzyl)-3-oxo-2,3,4,5,6,7-hexahydro-1H-isoindol-1-ylsulfanyl]-acetylamino}-nicotinamide] | 210 nM | 3.1 µM | – | – | – | – |
| O=C(CSC1C2=C(CCCC2)C(=O)N1Cc1cccc2ccccc12)Nc1ccccn1 (stereo not drawn) [Compound 17, 2-(2-Naphthalen-1-ylmethyl-3-oxo-2,3,4,5,6,7-hexahydro-1H-isoindol-1-ylsulfanyl)-N-pyridin-2-yl-acetamide] | 710 nM | 6.3 µM | 125 | – | – | – |
| COC(=O)c1ccc(NC(=O)CSC2C3=C(CCCC3)C(=O)N2Cc2ccc(OC(C)C)cc2)nc1 (stereo not drawn) [Compound 5] | – | – | – | 3100 nM and 1050 nM | 5.54 µM | – |
| COc1ccc(CN2C(=O)C3=C(CCCC3)C2SCC(=O)Nc2ccc(C)cn2)cc1OC (stereo not drawn) [Compound 11, 2-[2-(3,4-Dimethoxy-benzyl)-3-oxo-2,3,4,5,6,7-hexahydro-1H-isoindol-1-ylsulfanyl]-N-(5-methyl-pyridin-2-yl)-acetamide] | 800 nM | 5.7 µM | 168 | 550 nM | 3.5 µM | 202 |
| COc1ccc(CN2C(=O)C3=C(CCCC3)C2SCC(=O)Nc2ccccn2)cc1 (stereo not drawn) [Compound 3, 2-[2-(4-Methoxy-benzyl)-3-oxo-2,3,4,5,6,7-hexahydro-1H-isoindol-1-ylsulfanyl]-N-pyridin-2-yl-acetamide] | – | – | – | 390 nM | 1 µM | 250 |
| COc1ccc(CN2C(=O)C3=C(CCC3)C2SCC(=O)Nc2ccccn2)cc1 (stereo not drawn) [Compound 16, 2-[2-(4-Methoxy-benzyl)-3-oxo-1,2,3,4,5,6-hexahydro-cyclopenta[c]pyrrol-1-ylsulfanyl]-N-pyridin-2-yl-acetamide] | 1100 nM | 4.9 µM | 190 | – | – | – |
| COc1ccc(CN2C(=O)C3=C(CCCC3)C2OCC(=O)Nc2ccccn2)cc1 (stereo not drawn) [Compound 4, 2-[2-(4-Methoxy-benzyl)-3-oxo-2,3,4,5,6,7-hexahydro-1H-isoindol-1-yloxy]-N-pyridin-2-yl-acetamide] | – | – | – | 7780 nM | 31.4 µM | 114 |
| COc1ccc([C@H](C)N2C(=O)C3=C(CCCC3)[C@H]2SCC(=O)Nc2ccccn2)cc1 (single isomer, unassigned) [Compound 7] | – | – | 35 | – | – | 0 |
| COc1ccc(CN2C(=O)C3=C(CCCC3)C2SCC(=O)Nc2ccccn2)cc1OC (stereo not drawn) [Compound 10, 2-[2-(3,4-Dimethoxy-benzyl)-3-oxo-2,3,4,5,6,7-hexahydro-1H-isoindol-1-ylsulfanyl]-N-pyridin-2-yl-acetamide] | 450 nM | 1.8 µM | – | 390 nM | 1.35 µM | 259 |
| O=C(CSC1C2=C(CCCC2)C(=O)N1Cc1ccc(F)cc1)Nc1ccc(C(=O)O)cn1 (stereo not drawn) [Compound 21, 6-{2-[2-(4-Fluoro-benzyl)-3-oxo-2,3,4,5,6,7-hexahydro-1H-isoindol-1-ylsulfanyl]-acetylamino}-nicotinic acid] | 2200 nM | 12 µM | 165 | – | – | – |
| COc1ccc(CN2C(=O)C3=C(CCCC3)C2SCC(=O)Nc2ccc(C(=O)O)cn2)cc1 (stereo not drawn) [Compound 8, 6-{2-[2-(4-Methoxy-benzyl)-3-oxo-2,3,4,5,6,7-hexahydro-1H-isoindol-1-ylsulfanyl]-acetylamino}-nicotinic acid] | 1300 nM and 740 nM and 630 nM | – | – | 900 nM | 2.5 µM | – |
| NC(=O)c1ccc(NC(=O)CSC2C3=C(CCCC3)C(=O)N2Cc2ccc(F)cc2)nc1 (stereo not drawn) [Compound 20, 6-{2-[2-(4-Fluorobenzyl)-3-oxo-2,3,4,5,6,7-hexahydro-1H-isoindol-1-sulfanyl]-acetylamino}-nicotinamide] | 450 nM and 270 nM | 2 µM and 3.6 µM | – | – | – | – |
| COC(=O)c1ccc(NC(=O)CSC2C3=C(CCCC3)C(=O)N2Cc2ccc(OC)c(OC)c2)nc1 (stereo not drawn) [Compound 9, 6-{2-[2-(3,4-Dimethoxy-benzyl)-3-oxo-2,3,4,5,6,7-hexahydro-1H-isoindol-1-ylsulfanyl]-acetylamino}-nicotinic acid methyl ester] | 330 nM | 2.2 µM | 164 | 250 nM | 1.43 µM | 206 |
| COC(=O)c1ccc(NC(=O)CSC2C3=C(CCCC3)C(=O)N2Cc2ccc(OC)cc2)nc1 (stereo not drawn) [Compound 2] | 350 nM | 1.32 µM | – | 160 nM and 210 nM | 0.52 µM and 0.98 µM | – |
| COc1ccc([C@H](C)N2C(=O)C3=C(CCCC3)[C@@H]2SCC(=O)Nc2ccccn2)cc1 (single isomer, unassigned) [Compound 6] | – | – | 79 | – | – | 21 |
| O=C(CSC1C2=C(CCCC2)C(=O)N1Cc1cccnc1)Nc1ccccn1 (stereo not drawn) [Compound 18, 2-(3-Oxo-2-pyridin-3-ylmethyl-2,3,4,5,6,7-hexahydro-1H-isoindol-1-ylsulfanyl)-N-pyridin-2-yl-acetamide] | 3600 nM | 22 µM | – | – | – | – |
| COc1ccc(CN2C(=O)C3=C(CCCC3)C2SCC(=O)Nc2nccs2)cc1OC (stereo not drawn) [Compound 12, 2-[2-(3,4-Dimethoxy-benzyl)-3-oxo-2,3,4,5,6,7-hexahydro-1H-isoindol-1-ylsulfanyl]-N-thiazol-2-yl-acetamide] | 4300 nM | 17.1 µM | 143 | 3100 nM | 10.3 µM | 196 |
| O=C(CSC1C2=C(CCCC2)C(=O)N1Cc1ccc(O)cc1)Nc1nccs1 (stereo not drawn) [Compound 15, 2-[2-(4-Hydroxy-benzyl)-3-oxo-2,3,4,5,6,7-hexahydro-1H-isoindol-1-ylsulfanyl]-N-thiazol-2-yl-acetamide] | 7300 nM | >50 µM | 106 | – | – | – |
